Data published in ChEMBL document CHEMBL5335837, “Reinvestigation of diphenylmethylpiperazine analogues of pyrazine as new class of Plasmodial cysteine protease inhibitors for the treatment of malaria” (RSC Med Chem, 2024).
pIC50: −log10 of the molar value. Calls of active or inactive are those of the source. The rule behind the calls is not given here.

Experiments:
Plasmodium falciparum [1] = assay: Antimalarial activity against Plasmodium falciparum 3D7 assessed as reduction in parasite growth incubated for 48 to 50 hrs by microplate reader analysis; assay type: functional, organism-based; conditions: for pIC50: Plasmodium falciparum, 3D7, read-out: IC50
Erythrocyte = assay: Hemolytic activity in human RBCs at 100 uM incubated for 2 hrs by microplate reader analysis; assay type: toxicity, cell-based
[2] = Selectivity index, ratio of IC50 for cytotoxicity against african green monkey vero cells to IC50 for antimalarial activity against Plasmodium falciparum 3D7; assay type: toxicity, cell-based; conditions: read-out: Ratio IC50
[3] = Selectivity index, ratio of IC50 for cytotoxicity against african green monkey vero cells to IC50 for antimalarial activity against Plasmodium falciparum W2; assay type: toxicity, cell-based; conditions: read-out: Ratio IC50
Plasmodium falciparum [4] = assay: Antimalarial activity against Plasmodium falciparum W2 assessed as reduction in parasite growth incubated for 48 to 50 hrs by microplate reader analysis; assay type: functional, organism-based
Plasmodium falciparum [5] = assay: Resistance index, ratio of IC50 for antimalarial activity against Plasmodium falciparum 3D7 to IC50 for antimalarial activity against Plasmodium falciparum W2; assay type: functional
Falcipain 2 = biological target: T1, Falcipain 2 (Plasmodium falciparum, UniProt Q9N6S8); assay: Inhibition of Plasmodium falciparum FP2 using Z-Leu-Arg-AMC as substrate incubated for 30 mins by spectrofluorometry analysis
T1 sequence (Q9N6S8 whole entry): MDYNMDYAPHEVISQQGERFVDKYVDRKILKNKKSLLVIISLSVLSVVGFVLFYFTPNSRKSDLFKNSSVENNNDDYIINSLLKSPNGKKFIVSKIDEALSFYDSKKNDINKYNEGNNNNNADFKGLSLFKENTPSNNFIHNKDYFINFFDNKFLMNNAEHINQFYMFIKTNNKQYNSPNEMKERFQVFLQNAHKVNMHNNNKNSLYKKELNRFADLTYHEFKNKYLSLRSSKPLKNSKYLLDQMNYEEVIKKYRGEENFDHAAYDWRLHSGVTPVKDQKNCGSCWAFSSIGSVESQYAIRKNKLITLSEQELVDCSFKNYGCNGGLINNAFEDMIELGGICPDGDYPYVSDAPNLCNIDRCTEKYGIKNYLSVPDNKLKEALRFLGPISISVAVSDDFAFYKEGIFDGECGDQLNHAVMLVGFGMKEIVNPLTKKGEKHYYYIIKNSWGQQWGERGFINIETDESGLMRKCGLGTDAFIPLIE

Falcipain-3 = biological target: T2, Falcipain-3 (Plasmodium falciparum 3D7, UniProt Q8IIL0); assay: Inhibition of Plasmodium falciparum FP3 using Z-Leu-Arg-AMC as substrate incubated for 30 mins by spectrofluorometry analysis
T2 sequence (Q8IIL0 whole entry): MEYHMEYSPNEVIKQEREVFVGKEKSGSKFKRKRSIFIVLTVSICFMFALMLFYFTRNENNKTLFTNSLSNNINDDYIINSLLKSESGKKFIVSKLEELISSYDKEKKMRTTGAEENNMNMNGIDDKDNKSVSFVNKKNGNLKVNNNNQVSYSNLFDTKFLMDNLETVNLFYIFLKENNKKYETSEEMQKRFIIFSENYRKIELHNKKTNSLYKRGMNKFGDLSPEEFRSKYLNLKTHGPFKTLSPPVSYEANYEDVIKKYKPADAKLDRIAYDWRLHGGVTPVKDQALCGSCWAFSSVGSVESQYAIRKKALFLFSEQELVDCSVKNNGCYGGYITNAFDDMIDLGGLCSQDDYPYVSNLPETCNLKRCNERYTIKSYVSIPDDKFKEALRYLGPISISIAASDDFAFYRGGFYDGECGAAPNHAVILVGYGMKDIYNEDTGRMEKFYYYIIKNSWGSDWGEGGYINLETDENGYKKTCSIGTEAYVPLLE

Plasmodium falciparum [6] = assay: Antimalarial activity against Plasmodium falciparum 3D7 assessed as decrease in development of early trophozoite stage at 3 times IC50 incubated for 48 hrs by Geimsa staining based analysis; assay type: functional, organism-based
Plasmodium falciparum [7] = assay: Antimalarial activity against Plasmodium falciparum 3D7 assessed as decrease in new ring formation at 3 times IC50 concentration incubated for 48 hrs by Geimsa staining based analysis; assay type: functional, organism-based
Vero = assay: Cytotoxicity against african green monkey Vero cells upto 1000 uM measured after 72 hrs by MTT assay; assay type: toxicity, cell-based; conditions: chlorocebus sabaeus
A549 = assay: Anticancer activity against human A549 cells measured after 24 hrs by MTT assay; assay type: functional, cell-based; conditions: A549, 24 h
[8] = Selectivity index, ratio of IC50 for cytotoxicity against human A549 cells to IC50 for antimalarial activity against Plasmodium falciparum 3D7; assay type: toxicity, cell-based; conditions: read-out: Ratio IC50
[9] = Selectivity index, ratio of IC50 for cytotoxicity against human A549 cells to IC50 for antimalarial activity against Plasmodium falciparum W2; assay type: toxicity, cell-based; conditions: read-out: Ratio IC50
[10] = Selectivity index, ratio of IC50 for cytotoxicity against african green monkey vero cells to IC50 for cytotoxicity against human A549 cells
Plasmodium falciparum [11] = assay: Antimalarial activity against Plasmodium falciparum 3D7 assessed as inhibition of parasite growth incubated for 72 hrs by confocal microscopy analysis; assay type: functional, organism-based; conditions: 3D7, 72 h
Plasmodium falciparum [12] = assay: Antimalarial activity against Plasmodium falciparum Dd2 assessed as inhibition of parasite growth incubated for 72 hrs by confocal microscopy analysis; assay type: functional, organism-based; conditions: Dd2, 72 h
Plasmodium falciparum [13] = assay: Antimalarial activity against ring stage Plasmodium falciparum 3D7 infected in human erythrocytes incubated for 48 to 50 hrs by YOYO-1 staining based FACS analysis; assay type: functional, organism-based; conditions: 3D7, Erythrocyte

SMILES | pIC50 (Plasmodium falciparum [1]) | Activity (Erythrocyte) | selectivity ratio [2] | selectivity ratio [3] | pIC50 (Plasmodium falciparum [4]) | Ratio IC50 (Plasmodium falciparum [5]) | pIC50 (Falcipain 2) | pIC50 (Falcipain-3) | Activity (Vero) | pIC50 (A549) | selectivity ratio [8] | selectivity ratio [9] | Ratio IC50 [10] | other results
COc1ccc(C(c2cccc(OC)c2O)N2CCN(c3cnccn3)CC2)cc1 (stereo not given) | < 4.90 | Non-Toxic | – | – | – | – | – | – | – | – | – | – | – | –
Oc1ccccc1C(c1ccc(F)c(Cl)c1)N1CCN(c2cnccn2)CC1 (stereo not given) | 5.39 | Non-Toxic | – | – | – | – | – | – | – | – | – | – | – | –
COc1ccc(C(c2ccccc2O)N2CCN(c3cnccn3)CC2)cc1 (stereo not given) | 4.76 | Non-Toxic | 58.1 | 467 | 5.67 | 8.04 | 4.51 | 4.47 | Non-Toxic | 3.29 | 29.9 | 240 | 1.95 | Activity (Plasmodium falciparum [6]): Active; Activity (Plasmodium falciparum [7]): Active
Oc1ccccc1C(c1ccc(F)cc1)N1CCN(c2cnccn2)CC1 (stereo not given) | – | Non-Toxic | – | – | – | – | – | – | – | – | – | – | – | IC50 (Plasmodium falciparum [1]): Not Determined(Insoluble)
FC(F)Oc1ccc(-c2nnc3cncc(OCCc4ccccc4)n23)cc1 | – | – | – | – | – | – | – | – | – | – | – | – | – | pIC50 (Plasmodium falciparum [11]): 6.51; pIC50 (Plasmodium falciparum [12]): 6.27
Oc1ccccc1C(c1ccc(OC(F)(F)F)cc1)N1CCN(c2cnccn2)CC1 (stereo not given) | 5.55 | Non-Toxic | 357 | 295 | 5.47 | 0.83 | 5.23 | 5.19 | Non-Toxic | 4.04 | 32.8 | 27.1 | 10.89 | Activity (Plasmodium falciparum [6]): Active; Activity (Plasmodium falciparum [7]): Active
Oc1ccccc1C(c1ccc(Cl)c(Cl)c1)N1CCN(c2cnccn2)CC1 (stereo not given) | 5.55 | Non-Toxic | 356 | 244 | 5.39 | 0.68 | 5.18 | 5.16 | Non-Toxic | 4.21 | 21.9 | 15 | 16.29 | Activity (Plasmodium falciparum [6]): Active; Activity (Plasmodium falciparum [7]): Active
Oc1ccccc1C(c1ccc(F)c(F)c1)N1CCN(c2cnccn2)CC1 (stereo not given) | 5.41 | Non-Toxic | – | – | – | – | – | – | – | – | – | – | – | –
CCN(CC)CCCC(C)Nc1ccnc2cc(Cl)ccc12 (stereo not given) [CHLOROQUINE] | – | Non-Toxic | – | – | – | – | – | – | – | – | – | – | – | –
CC(C)C[C@H](NC(=O)[C@H]1O[C@@H]1C(=O)O)C(=O)NCCCCN=C(N)N [E-64] | – | – | – | – | – | – | 7.26 | 6.93 | – | – | – | – | – | –
COc1cccc(C(c2ccc(F)cc2)N2CCN(c3cnccn3)CC2)c1O (stereo not given) | < 4.90 | Non-Toxic | – | – | – | – | – | – | – | – | – | – | – | –
Oc1ccccc1C(c1ccc(C(F)(F)F)cc1)N1CCN(c2cnccn2)CC1 (stereo not given) | 5.75 | Non-Toxic | 562 | 31.9 | 4.50 | 0.06 | 5.07 | 5.02 | Non-Toxic | 4.23 | 33.4 | 1.89 | 16.8 | Activity (Plasmodium falciparum [6]): Active; Activity (Plasmodium falciparum [7]): Active
COc1cccc(C(c2ccc(F)c(F)c2)N2CCN(c3cnccn3)CC2)c1O (stereo not given) | 4.87 | Non-Toxic | 74.1 | 129 | 5.11 | 1.73 | 4.61 | 4.56 | Non-Toxic | 3.69 | 15.1 | 26.1 | 4.92 | –
COc1cccc(C(c2ccc(C(F)(F)F)cc2)N2CCN(c3cnccn3)CC2)c1O (stereo not given) | 5.52 | Non-Toxic | 328 | 230 | 5.36 | 0.7 | 5.21 | 5.17 | Non-Toxic | 3.92 | 39.5 | 27.7 | 8.3 | Activity (Plasmodium falciparum [6]): Active; Activity (Plasmodium falciparum [7]): Active
COc1cccc(C(c2ccc(Cl)c(Cl)c2)N2CCN(c3cnccn3)CC2)c1O (stereo not given) | 5.34 | Non-Toxic | – | – | – | – | – | – | – | – | – | – | – | –
COc1cccc(C(c2ccc(OC(F)(F)F)cc2)N2CCN(c3cnccn3)CC2)c1O (stereo not given) | 5.46 | Non-Toxic | 286 | 459 | 5.66 | 1.6 | 4.94 | 4.84 | Non-Toxic | 4.33 | 13.5 | 21.6 | 21.23 | –
Cc1ccc(C(c2ccccc2O)N2CCN(c3cnccn3)CC2)cc1 (stereo not given) | 5.42 | Non-Toxic | – | – | – | – | – | – | – | – | – | – | – | –
CCc1nc(N)nc(N)c1-c1ccc(Cl)cc1 [PYRIMETHAMINE] | – | – | – | – | – | – | – | – | – | – | – | – | – | pIC50 (Plasmodium falciparum [13]): 7.82
COc1cccc(C(c2ccc(C)cc2)N2CCN(c3cnccn3)CC2)c1O (stereo not given) | < 4.90 | Non-Toxic | – | – | – | – | – | – | – | – | – | – | – | –
COc1cccc(C(c2ccc(F)c(Cl)c2)N2CCN(c3cnccn3)CC2)c1O (stereo not given) | 5.14 | Non-Toxic | – | – | – | – | – | – | – | – | – | – | – | –
